Results as given in patent publication US12331040B2 (Karyopharm Therapeutics Inc., priority 2013, dated 2025).

Assays:
Format in all cases: cell-based
NCI-H187 cells = test: MTT cell proliferation assay; details: Homo sapiens, 72-hour MTT
Outline: (§1)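 After overnight attachment at 5,000-10,000 cells per well, cultures receive test compound at eight levels (1 nM to 30 μM) for 72 h, followed by roughly 4 h with MTT. Dissolved formazan is quantified at 490 nm, giving percent inhibition against untreated control.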

BL-40 cells = test: MTT cell proliferation assay; details: 72-hour MTT
Outline: as §1

NCI-H1299 cells = test: MTT cell proliferation assay; details: Homo sapiens, 72-hour MTT
Outline: as §1

MDA-MB-175 cells = test: MTT cell proliferation assay; details: 72-hour MTT
Outline: as §1

SW-403 cells = test: MTT cell proliferation assay; details: Homo sapiens, 72-hour MTT
Outline: as §1

BL-2 cells = test: MTT cell proliferation assay; details: BL2, 72-hour MTT
Outline: as §1

Daudi cells = test: MTT cell proliferation assay; details: Homo sapiens, 72-hour MTT
Outline: as §1

CaOV3 cells = test: MTT cell proliferation assay; details: Homo sapiens, Caov-3, 72-hour MTT
Outline: as §1

Colo-201 cells = test: MTT cell proliferation assay; details: Homo sapiens, 72-hour MTT
Outline: as §1

Tera-1 cells = test: MTT cell proliferation assay; details: 72-hour MTT
Outline: as §1

PBMC = test: MTT cell proliferation assay; details: 72-hour MTT
Outline: as §1

HPAF-II cells = test: MTT cell proliferation assay; details: Homo sapiens, 72-hour MTT
Outline: as §1

SW-1116 cells = test: MTT cell proliferation assay; details: Homo sapiens, 72-hour MTT
Outline: as §1

MDA-MB-415 cells = test: MTT cell proliferation assay; details: Homo sapiens, 72-hour MTT
Outline: as §1

MOLT4 cells = test: MTT cell proliferation assay; details: Homo sapiens, MOLT-4, 72-hour MTT
Outline: as §1

HCT116 cells = test: MTT cell proliferation assay; details: Homo sapiens, HCT-116, 72-hour MTT
Outline: as §1

RL cells = test: MTT cell proliferation assay; details: Homo sapiens, 72-hour MTT
Outline: as §1

MM1R cells = test: MTT cell proliferation assay; details: MM.1R, 72-hour MTT
Outline: as §1

HCC-2935 cells = test: MTT cell proliferation assay; details: Homo sapiens, HCC2935, 72-hour MTT
Outline: as §1

SW-48 cells = test: MTT cell proliferation assay; details: Homo sapiens, SW48, 72-hour MTT
Outline: as §1

NCI-H520 cells = test: MTT cell proliferation assay; details: Homo sapiens, 72-hour MTT
Outline: as §1

U-937 cells = test: MTT cell proliferation assay; details: Homo sapiens, 72-hour MTT
Outline: as §1

MINO cells = test: MTT cell proliferation assay; details: Homo sapiens, 72-hour MTT
Outline: as §1

DoHH-2 cells = test: MTT cell proliferation assay; details: Homo sapiens, 72-hour MTT
Outline: as §1

NCI-H2122 cells = test: MTT cell proliferation assay; details: Homo sapiens, 72-hour MTT
Outline: as §1

MHCC97H cells = test: MTT cell proliferation assay; details: Homo sapiens, 72-hour MTT
Outline: as §1

SHP-77 cells = test: MTT cell proliferation assay; details: Homo sapiens, SHP77, 72-hour MTT
Outline: as §1

BT-474 cells = test: MTT cell proliferation assay; details: Homo sapiens, 72-hour MTT
Outline: as §1

MiaPaCa-2 cells = test: MTT cell proliferation assay; details: Homo sapiens, MIA PaCa-2, 72-hour MTT
Outline: as §1

NCI-H889 cells = test: MTT cell proliferation assay; details: Homo sapiens, 72-hour MTT
Outline: as §1

MSTO-211H cells = test: MTT cell proliferation assay; details: Homo sapiens, 72-hour MTT
Outline: as §1

NCI-H820 cells = test: MTT cell proliferation assay; details: 72-hour MTT
Outline: as §1

KG-1 cells = test: MTT cell proliferation assay; details: Homo sapiens, 72-hour MTT
Outline: as §1

LS-174T cells = test: MTT cell proliferation assay; details: Homo sapiens, LS174T, 72-hour MTT
Outline: as §1

NCI-H226 cells = test: MTT cell proliferation assay; details: Homo sapiens, 72-hour MTT
Outline: as §1

IMR-90 cells = test: MTT cell proliferation assay; details: Homo sapiens, 72-hour MTT
Outline: as §1

cancer cell lines = test: 72-hour MTT cell proliferation assay, summary over the cancer cell lines tested
Procedure: The MTT cell proliferation assay was used to study the cytotoxic properties of the compounds. The assay was performed according to the method described by Roche Molecular Biochemicals, with minor modifications. The assay is based on the cleavage of the tetrazolium salt, MTT, in the presence of an electron-coupling reagent. The water-insoluble formazan salt produced must be solubilized in an additional step. Cells grown in a 96-well tissue culture plate were incubated with the MTT solution for approximately 4 hours. After this incubation period, a water-insoluble formazan dye formed. After solubilization, the formazan dye was quantitated using a scanning multi-well spectrophotometer (ELISA reader). […] The cells were seeded at 5,000-10,000 cells in each well of 96-well plate in 100 μL of fresh culture medium and were allowed to attach overnight. The stock solutions of the compounds were diluted in 100 μL cell culture medium to obtain eight concentrations of each test compound, ranging from 1 nM to 30 μM. […] All optical densities were measured at 490 nm using a Vmax Kinetic Microplate Reader (Molecular Devices). In most cases, the assay was performed in duplicate and the results were presented as a mean percent inhibition to the negative control±SE. The following formula was used to calculate the percent of inhibition: Inhibition (%)=(1−(ODo/OD))×100.
Compounds 504, 510, 525 and 585 were further tested against selected solid and hematological cancer cell lines and selected normal cell lines in a 72-hour MTT cell proliferation assay.

**Q.** With Nc1ccc(/C=C/C(=O)NCc2cc3cc(-c4ccc(C(=O)N5CCC(F)(F)CC5)cn4)cc(C(F)(F)F)c3o2)cn1 [Compound 585, (E)-3-(6-aminopyridin-3-yl)-N-((5-(5-(4,4-difluoropiperidine-1-carbonyl)pyridin-2-yl)-7-(trifluoromethyl)benzofuran-2-yl)methyl)acrylamide] as the molecule, how does the IC50 (NCI-H187 cells) read?
**A.** Its IC50 is 70 nM.

**Q.** What about the IC50 (BL-40 cells) of the same molecule?
**A.** Its IC50 is 300 nM.

**Q.** What about the IC50 (NCI-H1299 cells) of the same molecule?
**A.** Its IC50 is 190 nM.

**Q.** And the IC50 (MDA-MB-175 cells)?
**A.** Its IC50 is greater than 10000 nM.

**Q.** What about the IC50 (SW-403 cells) of the same molecule?
**A.** The IC50 was 380 nM.

**Q.** And the IC50 (BL-2 cells)?
**A.** The IC50 was 180 nM.

**Q.** What about the IC50 (Daudi cells) of the same molecule?
**A.** Its IC50 is 40 nM.

**Q.** And the IC50 (CaOV3 cells)?
**A.** The IC50 was 2220 nM.

**Q.** What about the IC50 (Colo-201 cells) of the same molecule?
**A.** The IC50 was 560 nM.

**Q.** And the IC50 (Tera-1 cells)?
**A.** Its IC50 is 120 nM.

**Q.** And the IC50 (PBMC)?
**A.** Its IC50 is 2200 nM.

**Q.** And the IC50 (HPAF-II cells)?
**A.** The IC50 was 550 nM.

**Q.** And the IC50 (SW-1116 cells)?
**A.** Its IC50 is 970 nM.

**Q.** And the IC50 (MDA-MB-415 cells)?
**A.** The IC50 was 1020 nM.

**Q.** And the IC50 (MOLT4 cells)?
**A.** Its IC50 is 40 nM.

**Q.** What about the IC50 (HCT116 cells) of the same molecule?
**A.** Its IC50 is 9820 nM.

**Q.** And the IC50 (RL cells)?
**A.** The IC50 was 210 nM.

**Q.** What about the IC50 (MM1R cells) of the same molecule?
**A.** The IC50 was 190 nM.

**Q.** What about the IC50 (HCC-2935 cells) of the same molecule?
**A.** The IC50 was 4390 nM.

**Q.** And the IC50 (SW-48 cells)?
**A.** Its IC50 is 170 nM.

**Q.** What about the IC50 (NCI-H520 cells) of the same molecule?
**A.** Its IC50 is 20 nM.

**Q.** What about the IC50 (U-937 cells) of the same molecule?
**A.** The IC50 was 260 nM.

**Q.** What about the IC50 (MINO cells) of the same molecule?
**A.** Its IC50 is 110 nM.

**Q.** And the IC50 (DoHH-2 cells)?
**A.** The IC50 was 90 nM.

**Q.** What about the IC50 (NCI-H2122 cells) of the same molecule?
**A.** The IC50 was 5810 nM.

**Q.** What about the IC50 (MHCC97H cells) of the same molecule?
**A.** Its IC50 is greater than 10000 nM.

**Q.** What about the IC50 (SHP-77 cells) of the same molecule?
**A.** Its IC50 is 210 nM.

**Q.** What about the IC50 (BT-474 cells) of the same molecule?
**A.** Its IC50 is 6470 nM.

**Q.** And the IC50 (MiaPaCa-2 cells)?
**A.** Its IC50 is 880 nM.

**Q.** And the IC50 (NCI-H889 cells)?
**A.** Its IC50 is 60 nM.

**Q.** And the IC50 (MSTO-211H cells)?
**A.** Its IC50 is 250 nM.

**Q.** What about the IC50 (NCI-H820 cells) of the same molecule?
**A.** Its IC50 is 2840 nM.

**Q.** And the IC50 (KG-1 cells)?
**A.** Its IC50 is 150 nM.

**Q.** And the IC50 (LS-174T cells)?
**A.** Its IC50 is 8800 nM.

**Q.** What about the IC50 (NCI-H226 cells) of the same molecule?
**A.** The IC50 was 6780 nM.

**Q.** What about the IC50 (IMR-90 cells) of the same molecule?
**A.** The IC50 was 4000 nM.

**Q.** What about the “share of the hematological cancer cell lines tested with an IC50 of less than 500 nM” value (cancer cell lines; 30/33 hematological cancer cell lines) of the same molecule?
**A.** The value was 91%.

**Q.** And the “share of the solid cancer cell lines tested with an IC50 of less than 500 nM” value (cancer cell lines; 42/93 solid cancer cell lines)?
**A.** Its value is 45%.

**Q.** What about the “share of the cancer cell lines tested with an IC50 of less than 1 μM” value (cancer cell lines; 91/126 cancer cell lines) of the same molecule?
**A.** Its value is 72%.
